Assay results taken from paper PMC3382171 (PLoS ONE, 2012).

Columns and labels:
Assay in all cases: biochemical
Design in all cases: Invitrogen SelectScreen kinase panel, percent inhibition at 1 uM, ATP at Km
Conditions in all cases: read-out: Invitrogen KSS %Inh at 1 µM
CDK1/cyclinB = CDK1/cyclinB (Homo sapiens, UniProt P06493)
Method: (§1) The METi and RAFi were screened against kinase panels (SelectScreen, Invitrogen; University of Dundee, Division of Signal Transduction Therapy, UK; Upstate Biotechnology/Millipore, Billerica, MA). In these selectivity assays the concentration of ATP was set to the Km value of ATP for each kinase tested to allow for a relative potency comparison between the various kinases. The compounds were tested at 1 µM final concentration. […] Supplementary file pone.0039653.s002.pdf: Figure S2 Kinase Selectivity Screen of RAFi. (A) Kinase selectivity screen (KSS) performed at University of Dundee (Division of Signal Transduction Therapy). Values in % inhibition of phosphorylation given 1 µM of RAFi compared to control. (B) KSS performed at Invitrogen (Selectscreen Service) compared to control. Values in % inhibition of phosphorylation given 1 µM of RAFi. (C) Cell based dose response kinase inhibition of indicated kinases by RAFi. (PDF) Click here for additional data file.

DYRK1A = DYRK1A (Homo sapiens, UniProt Q13627)
Method: as §1

EGFR (ErbB1) = EGFR (ErbB1) (Homo sapiens, UniProt P00533)
Method: as §1

EGFR (ErbB1) L858R = EGFR (ErbB1) L858R (Homo sapiens, UniProt P00533, L858R)
Method: as §1

EPHB2 = EPHB2 (Homo sapiens, UniProt P29323)
Method: as §1

EPHB4 = EPHB4 (Homo sapiens, UniProt P54760)
Method: as §1

FGFR4 = FGFR4 (Homo sapiens, UniProt P22455)
Method: as §1

FGR = FGR (Homo sapiens, UniProt P09769)
Method: as §1

GSK3B (GSK3 beta) = GSK3B (GSK3 beta) (Homo sapiens, UniProt P49841)
Method: as §1

INSR = INSR (Homo sapiens, UniProt P06213)
Method: as §1

KDR (VEGFR2) = KDR (VEGFR2) (Homo sapiens, UniProt P35968)
Method: as §1

MAPK8 (JNK1) = MAPK8 (JNK1) (Homo sapiens, UniProt P45983)
Method: as §1

PAK6 = PAK6 (Homo sapiens, UniProt Q9NQU5)
Method: as §1

PIK3CG (p110 gamma) = PIK3CG (p110 gamma) (Homo sapiens, UniProt P48736)
Method: as §1

PIM2 = PIM2 (Homo sapiens, UniProt Q9P1W9)
Method: as §1

PRKCB1 (PKC beta I) = target: T1, PRKCB1 (PKC beta I) (Homo sapiens, UniProt P05771)
T1 construct: gene PRKCB; isoform beta I
Method: as §1

PRKCQ (PKC theta) = PRKCQ (PKC theta) (Homo sapiens, UniProt Q04759)
Method: as §1

PTK6 (Brk) = PTK6 (Brk) (Homo sapiens, UniProt Q13882)
Method: as §1

ROCK1 = ROCK1 (Homo sapiens, UniProt Q13464)
Method: as §1

ROS1 = ROS1 (Homo sapiens, UniProt P08922)
Method: as §1

SGKL (SGK3) = SGKL (SGK3) (Homo sapiens, UniProt Q96BR1)
Method: as §1

SRC = SRC (Homo sapiens, UniProt P12931)
Method: as §1

Chain of ROCK1 (Q13464 whole entry): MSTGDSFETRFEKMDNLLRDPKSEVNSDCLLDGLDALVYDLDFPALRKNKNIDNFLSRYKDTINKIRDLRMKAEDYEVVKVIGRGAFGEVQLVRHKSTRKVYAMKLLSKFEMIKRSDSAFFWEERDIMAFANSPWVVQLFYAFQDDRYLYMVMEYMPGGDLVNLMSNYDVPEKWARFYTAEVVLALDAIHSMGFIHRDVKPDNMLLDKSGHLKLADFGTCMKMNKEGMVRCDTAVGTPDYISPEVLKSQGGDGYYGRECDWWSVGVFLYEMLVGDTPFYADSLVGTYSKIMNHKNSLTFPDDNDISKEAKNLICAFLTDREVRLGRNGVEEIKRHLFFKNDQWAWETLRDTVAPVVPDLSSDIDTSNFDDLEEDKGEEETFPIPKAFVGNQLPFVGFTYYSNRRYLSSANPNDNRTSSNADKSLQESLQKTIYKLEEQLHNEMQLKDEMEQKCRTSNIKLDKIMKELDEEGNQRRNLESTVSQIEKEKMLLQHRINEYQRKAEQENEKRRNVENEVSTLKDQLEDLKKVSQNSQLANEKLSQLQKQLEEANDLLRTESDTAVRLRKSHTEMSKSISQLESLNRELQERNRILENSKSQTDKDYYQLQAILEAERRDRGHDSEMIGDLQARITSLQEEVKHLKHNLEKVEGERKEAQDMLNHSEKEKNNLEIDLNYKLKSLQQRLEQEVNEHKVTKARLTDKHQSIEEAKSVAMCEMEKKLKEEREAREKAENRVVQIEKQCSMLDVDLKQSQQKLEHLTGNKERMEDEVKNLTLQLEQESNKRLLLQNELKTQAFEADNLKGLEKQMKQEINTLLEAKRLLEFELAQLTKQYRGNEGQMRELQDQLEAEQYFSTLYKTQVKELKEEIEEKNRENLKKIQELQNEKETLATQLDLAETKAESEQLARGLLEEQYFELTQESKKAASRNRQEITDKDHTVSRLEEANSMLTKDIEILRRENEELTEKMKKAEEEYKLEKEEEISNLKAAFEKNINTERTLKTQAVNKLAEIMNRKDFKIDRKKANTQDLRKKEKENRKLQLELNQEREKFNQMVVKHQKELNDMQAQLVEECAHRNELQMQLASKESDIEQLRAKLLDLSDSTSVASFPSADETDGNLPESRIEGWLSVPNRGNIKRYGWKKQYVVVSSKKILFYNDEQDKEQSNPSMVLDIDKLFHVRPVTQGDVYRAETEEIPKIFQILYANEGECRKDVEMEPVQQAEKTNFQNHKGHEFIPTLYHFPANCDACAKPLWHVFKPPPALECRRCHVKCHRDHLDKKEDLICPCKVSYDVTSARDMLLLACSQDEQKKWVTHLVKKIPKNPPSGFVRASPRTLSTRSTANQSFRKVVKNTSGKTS
Chain of EPHB4 (P54760 whole entry): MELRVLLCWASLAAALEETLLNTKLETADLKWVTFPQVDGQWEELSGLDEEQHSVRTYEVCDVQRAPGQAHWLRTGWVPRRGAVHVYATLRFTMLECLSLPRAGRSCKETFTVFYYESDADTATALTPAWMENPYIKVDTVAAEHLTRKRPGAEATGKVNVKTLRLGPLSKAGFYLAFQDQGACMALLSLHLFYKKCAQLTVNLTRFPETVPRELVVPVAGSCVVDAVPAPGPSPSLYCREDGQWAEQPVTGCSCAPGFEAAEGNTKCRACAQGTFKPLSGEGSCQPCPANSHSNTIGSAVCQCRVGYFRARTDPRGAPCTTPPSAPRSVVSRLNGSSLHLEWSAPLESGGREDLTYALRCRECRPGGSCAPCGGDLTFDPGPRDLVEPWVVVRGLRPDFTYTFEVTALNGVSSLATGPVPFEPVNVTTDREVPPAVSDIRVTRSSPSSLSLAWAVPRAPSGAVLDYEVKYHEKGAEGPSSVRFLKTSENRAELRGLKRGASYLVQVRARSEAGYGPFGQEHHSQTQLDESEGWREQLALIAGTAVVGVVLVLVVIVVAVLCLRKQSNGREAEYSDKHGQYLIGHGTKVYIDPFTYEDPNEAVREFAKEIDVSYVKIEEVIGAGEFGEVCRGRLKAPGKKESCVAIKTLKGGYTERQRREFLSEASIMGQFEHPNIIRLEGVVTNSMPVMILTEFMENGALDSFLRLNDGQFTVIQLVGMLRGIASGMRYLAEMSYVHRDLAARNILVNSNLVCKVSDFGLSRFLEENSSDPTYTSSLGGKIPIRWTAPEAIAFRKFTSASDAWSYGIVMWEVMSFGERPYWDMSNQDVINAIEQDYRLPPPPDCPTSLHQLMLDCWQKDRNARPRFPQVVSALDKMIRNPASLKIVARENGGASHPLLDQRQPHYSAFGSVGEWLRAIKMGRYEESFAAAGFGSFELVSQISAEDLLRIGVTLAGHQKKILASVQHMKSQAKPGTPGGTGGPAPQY
Chain of PTK6 (Brk) (Q13882 whole entry): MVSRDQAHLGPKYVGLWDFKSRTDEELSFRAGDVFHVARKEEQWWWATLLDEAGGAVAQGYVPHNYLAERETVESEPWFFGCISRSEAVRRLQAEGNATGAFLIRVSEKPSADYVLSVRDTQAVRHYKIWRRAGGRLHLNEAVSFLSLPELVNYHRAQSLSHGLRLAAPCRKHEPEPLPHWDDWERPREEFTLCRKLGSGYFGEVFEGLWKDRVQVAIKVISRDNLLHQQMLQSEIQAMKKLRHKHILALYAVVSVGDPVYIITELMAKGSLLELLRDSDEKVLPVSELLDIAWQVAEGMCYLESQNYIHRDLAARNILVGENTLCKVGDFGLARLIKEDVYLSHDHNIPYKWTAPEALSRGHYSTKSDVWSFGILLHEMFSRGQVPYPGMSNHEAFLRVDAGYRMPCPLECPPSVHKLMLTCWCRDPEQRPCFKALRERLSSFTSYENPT
Chain of MAPK8 (JNK1) (P45983 whole entry): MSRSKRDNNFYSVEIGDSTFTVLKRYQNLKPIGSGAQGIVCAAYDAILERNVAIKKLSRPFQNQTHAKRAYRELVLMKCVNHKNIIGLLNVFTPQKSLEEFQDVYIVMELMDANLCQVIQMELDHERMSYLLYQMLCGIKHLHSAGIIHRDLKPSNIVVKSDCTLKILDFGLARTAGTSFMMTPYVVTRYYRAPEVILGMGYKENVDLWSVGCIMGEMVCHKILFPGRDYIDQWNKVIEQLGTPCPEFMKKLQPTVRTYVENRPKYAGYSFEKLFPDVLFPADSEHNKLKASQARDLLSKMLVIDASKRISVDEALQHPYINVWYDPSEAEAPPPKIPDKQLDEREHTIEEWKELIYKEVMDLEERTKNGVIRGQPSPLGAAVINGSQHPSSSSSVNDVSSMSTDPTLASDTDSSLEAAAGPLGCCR
Chain of FGFR4 (P22455 whole entry): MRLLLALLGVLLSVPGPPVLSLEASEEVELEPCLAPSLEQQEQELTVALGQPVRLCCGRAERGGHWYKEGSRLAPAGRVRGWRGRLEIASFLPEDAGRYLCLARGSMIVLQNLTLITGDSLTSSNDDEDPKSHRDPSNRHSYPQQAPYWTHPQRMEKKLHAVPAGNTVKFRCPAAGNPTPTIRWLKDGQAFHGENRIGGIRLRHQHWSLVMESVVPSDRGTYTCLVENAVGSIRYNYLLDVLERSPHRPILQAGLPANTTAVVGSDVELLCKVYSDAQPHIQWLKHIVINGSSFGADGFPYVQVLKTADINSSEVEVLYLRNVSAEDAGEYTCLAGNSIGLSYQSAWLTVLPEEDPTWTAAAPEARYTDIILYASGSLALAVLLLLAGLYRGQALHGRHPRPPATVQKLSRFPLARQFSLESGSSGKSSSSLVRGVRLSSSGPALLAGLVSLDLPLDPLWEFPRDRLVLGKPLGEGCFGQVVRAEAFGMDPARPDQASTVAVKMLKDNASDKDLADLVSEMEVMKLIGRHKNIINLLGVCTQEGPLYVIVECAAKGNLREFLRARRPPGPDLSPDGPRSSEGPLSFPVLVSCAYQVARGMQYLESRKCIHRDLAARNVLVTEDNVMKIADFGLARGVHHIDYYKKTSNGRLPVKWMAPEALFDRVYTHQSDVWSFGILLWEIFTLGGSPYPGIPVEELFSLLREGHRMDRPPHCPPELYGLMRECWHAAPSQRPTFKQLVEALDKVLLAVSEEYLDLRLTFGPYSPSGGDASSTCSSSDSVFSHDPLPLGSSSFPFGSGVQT
Chain of PAK6 (Q9NQU5 whole entry): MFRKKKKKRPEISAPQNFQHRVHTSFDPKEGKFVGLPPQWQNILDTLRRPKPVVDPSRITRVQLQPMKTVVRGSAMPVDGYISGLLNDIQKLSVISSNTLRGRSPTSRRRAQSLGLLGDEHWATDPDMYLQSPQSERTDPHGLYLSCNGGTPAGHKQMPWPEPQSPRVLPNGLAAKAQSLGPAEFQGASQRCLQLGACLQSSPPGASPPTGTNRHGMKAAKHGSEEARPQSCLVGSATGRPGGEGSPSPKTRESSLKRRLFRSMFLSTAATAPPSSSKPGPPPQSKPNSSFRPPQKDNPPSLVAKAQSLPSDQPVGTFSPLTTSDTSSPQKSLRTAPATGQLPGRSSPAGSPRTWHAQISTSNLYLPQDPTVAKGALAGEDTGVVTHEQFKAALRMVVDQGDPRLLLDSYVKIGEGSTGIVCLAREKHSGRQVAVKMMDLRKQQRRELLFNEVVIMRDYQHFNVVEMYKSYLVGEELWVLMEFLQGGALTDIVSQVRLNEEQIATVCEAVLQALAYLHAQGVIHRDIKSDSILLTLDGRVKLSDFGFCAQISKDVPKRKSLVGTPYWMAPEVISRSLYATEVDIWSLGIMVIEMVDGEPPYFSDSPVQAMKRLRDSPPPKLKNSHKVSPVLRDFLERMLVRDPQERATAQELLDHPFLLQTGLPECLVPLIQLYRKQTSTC
Chain of PIM2 (Q9P1W9 whole entry): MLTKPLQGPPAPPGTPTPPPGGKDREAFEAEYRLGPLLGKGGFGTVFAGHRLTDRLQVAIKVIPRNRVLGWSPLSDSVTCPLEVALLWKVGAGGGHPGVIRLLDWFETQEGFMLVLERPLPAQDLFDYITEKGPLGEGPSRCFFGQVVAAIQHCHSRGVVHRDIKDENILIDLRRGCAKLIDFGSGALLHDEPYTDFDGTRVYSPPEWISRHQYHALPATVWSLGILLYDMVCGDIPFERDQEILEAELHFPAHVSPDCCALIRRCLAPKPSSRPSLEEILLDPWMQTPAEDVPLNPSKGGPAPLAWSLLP

- inhibition at 1 µM (CDK1/cyclinB): -1%
- inhibition at 1 µM (DYRK1A): -12%
- inhibition at 1 µM (EGFR (ErbB1)): 5%
- inhibition at 1 µM (EGFR (ErbB1) L858R): 6%
- inhibition at 1 µM (EPHB2): 3%
- inhibition at 1 µM (EPHB4): 2%
- inhibition at 1 µM (FGFR4): 5%
- inhibition at 1 µM (FGR): 2%
- inhibition at 1 µM (GSK3B (GSK3 beta)): 23%
- inhibition at 1 µM (INSR): -4%
- inhibition at 1 µM (KDR (VEGFR2)): 33%
- inhibition at 1 µM (MAPK8 (JNK1)): 31%
- inhibition at 1 µM (PAK6): 10%
- inhibition at 1 µM (PIK3CG (p110 gamma)): 12%
- inhibition at 1 µM (PIM2): 3%
- inhibition at 1 µM (PRKCB1 (PKC beta I)): 36%
- inhibition at 1 µM (PRKCQ (PKC theta)): -2%
- inhibition at 1 µM (PTK6 (Brk)): 5%
- inhibition at 1 µM (ROCK1): 4%
- inhibition at 1 µM (ROS1): 11%
- inhibition at 1 µM (SGKL (SGK3)): -1%
- inhibition at 1 µM (SRC): 1%
Compound: N#CCCNc1nccc(-c2cn(CC(F)F)nc2-c2cnc3[nH]ccc3c2)n1 [RAFi, PF-04880594]
